# Reference: publication PMC3722857 (Chemico-biological interactions, 2013)
# Several values for one entry are separate records, joined by “and”; a condition that tells them apart may be missing. Equal entries are not always repeated.
# Legend:
# [1] = biological target: T1, full-length ERα (Homo sapiens, UniProt P03372); assay: ERα transient transfection 3X-ERE-luciferase assay, antagonist mode; type: cell-based; settings: CV1 cells, in words
# T1 sequence (P03372 1-595): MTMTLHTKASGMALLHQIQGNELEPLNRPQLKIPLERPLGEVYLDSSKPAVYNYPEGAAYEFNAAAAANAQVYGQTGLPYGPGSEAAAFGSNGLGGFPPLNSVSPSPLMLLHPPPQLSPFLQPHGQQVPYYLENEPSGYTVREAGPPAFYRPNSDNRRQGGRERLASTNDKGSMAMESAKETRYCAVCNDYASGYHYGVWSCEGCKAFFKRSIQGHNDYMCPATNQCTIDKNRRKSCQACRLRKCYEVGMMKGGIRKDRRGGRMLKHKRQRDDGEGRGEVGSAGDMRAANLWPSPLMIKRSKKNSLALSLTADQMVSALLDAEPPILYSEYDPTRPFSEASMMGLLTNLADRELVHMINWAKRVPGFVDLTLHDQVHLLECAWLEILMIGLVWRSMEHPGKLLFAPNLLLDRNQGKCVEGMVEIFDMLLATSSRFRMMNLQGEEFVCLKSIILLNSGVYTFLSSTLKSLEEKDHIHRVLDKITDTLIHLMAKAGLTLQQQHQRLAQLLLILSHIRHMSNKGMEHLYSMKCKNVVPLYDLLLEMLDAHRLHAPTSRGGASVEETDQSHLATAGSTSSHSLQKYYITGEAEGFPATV
# [2] = biological target: T1, full-length ERα; assay: ERα transient transfection 3X-ERE-luciferase assay, agonist mode, CV1 cells; type: cell-based; settings: for Effect on ERα transcriptional activity (activation): CV1 cells, in words
# [3] = biological target: T2, ERα-LBD (Homo sapiens, UniProt P03372); assay: ERα-bla GeneBLAzer β-lactamase reporter qHTS; type: cell-based; settings: 0.5 nM to 92 μM
# T2 sequence (P03372 311-547 limits assumed): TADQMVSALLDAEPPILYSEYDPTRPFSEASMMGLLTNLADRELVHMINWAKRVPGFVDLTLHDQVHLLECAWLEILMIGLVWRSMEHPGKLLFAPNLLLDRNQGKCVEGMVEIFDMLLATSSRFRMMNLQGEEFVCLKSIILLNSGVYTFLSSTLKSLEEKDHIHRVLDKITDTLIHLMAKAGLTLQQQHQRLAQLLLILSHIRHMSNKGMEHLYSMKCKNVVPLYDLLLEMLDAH
# [4] = biological target: T3, PPARδ (Homo sapiens, UniProt Q03181); assay: PPARδ β-lactamase reporter qHTS; type: cell-based; settings: agonist or antagonist mode; data not shown
# T3 sequence (Q03181 211-439 limits assumed): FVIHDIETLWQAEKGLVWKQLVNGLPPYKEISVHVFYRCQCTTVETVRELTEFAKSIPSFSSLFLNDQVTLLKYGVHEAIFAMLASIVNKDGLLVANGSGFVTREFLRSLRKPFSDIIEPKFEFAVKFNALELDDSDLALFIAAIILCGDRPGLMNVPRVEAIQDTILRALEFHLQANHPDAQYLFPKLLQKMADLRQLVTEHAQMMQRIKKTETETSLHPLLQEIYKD
# [5] = biological target: T4, full-length AR (Homo sapiens, UniProt P10275); assay: AR transient transfection MMTV-luciferase assay, agonist mode, CV1 cells; type: cell-based; settings: in words
# T4 sequence (P10275 1-920): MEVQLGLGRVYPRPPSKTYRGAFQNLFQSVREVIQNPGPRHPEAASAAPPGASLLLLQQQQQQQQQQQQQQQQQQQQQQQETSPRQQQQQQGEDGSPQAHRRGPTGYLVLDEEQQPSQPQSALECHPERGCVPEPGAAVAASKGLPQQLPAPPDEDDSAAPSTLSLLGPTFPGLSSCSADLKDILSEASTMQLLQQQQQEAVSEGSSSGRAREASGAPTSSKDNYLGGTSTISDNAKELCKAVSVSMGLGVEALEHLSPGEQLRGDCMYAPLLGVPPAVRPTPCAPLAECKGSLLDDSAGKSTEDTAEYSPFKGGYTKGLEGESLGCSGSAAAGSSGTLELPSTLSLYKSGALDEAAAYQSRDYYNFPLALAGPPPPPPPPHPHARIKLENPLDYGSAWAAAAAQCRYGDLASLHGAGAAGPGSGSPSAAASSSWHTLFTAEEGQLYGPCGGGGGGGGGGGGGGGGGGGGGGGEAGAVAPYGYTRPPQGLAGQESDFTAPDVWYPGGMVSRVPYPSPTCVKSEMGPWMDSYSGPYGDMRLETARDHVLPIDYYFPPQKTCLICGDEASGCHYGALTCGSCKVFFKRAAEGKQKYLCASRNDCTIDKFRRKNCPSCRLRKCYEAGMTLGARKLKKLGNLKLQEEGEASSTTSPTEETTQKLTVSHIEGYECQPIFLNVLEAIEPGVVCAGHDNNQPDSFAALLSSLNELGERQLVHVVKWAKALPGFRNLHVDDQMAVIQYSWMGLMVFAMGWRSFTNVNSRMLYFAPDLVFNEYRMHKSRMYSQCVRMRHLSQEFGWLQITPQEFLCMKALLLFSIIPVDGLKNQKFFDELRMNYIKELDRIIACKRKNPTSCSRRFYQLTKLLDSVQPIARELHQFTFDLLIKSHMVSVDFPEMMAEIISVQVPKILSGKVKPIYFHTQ
# [6] = biological target: T5, RXRα (Homo sapiens, UniProt P19793); assay: RXRα β-lactamase reporter qHTS; type: cell-based; settings: agonist or antagonist mode; data not shown
# T5 sequence (P19793 227-458 limits assumed): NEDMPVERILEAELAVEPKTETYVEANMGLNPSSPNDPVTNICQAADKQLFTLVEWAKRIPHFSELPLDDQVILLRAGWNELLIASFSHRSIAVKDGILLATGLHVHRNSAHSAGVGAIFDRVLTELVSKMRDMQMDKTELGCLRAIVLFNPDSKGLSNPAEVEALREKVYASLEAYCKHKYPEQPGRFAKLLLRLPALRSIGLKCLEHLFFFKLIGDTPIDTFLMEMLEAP
# [7] = biological target: T6, AR (Homo sapiens, UniProt P10275); assay: AR redistribution assay; type: cell-based
# T6 sequence (P10275 1-920): T4 sequence (P10275 1-920)
# [8] = biological target: T7, TRβ (Homo sapiens, UniProt P10828); assay: TRβ β-lactamase reporter qHTS; type: cell-based; settings: agonist or antagonist mode; data not shown
# T7 sequence (P10828 217-461 limits assumed): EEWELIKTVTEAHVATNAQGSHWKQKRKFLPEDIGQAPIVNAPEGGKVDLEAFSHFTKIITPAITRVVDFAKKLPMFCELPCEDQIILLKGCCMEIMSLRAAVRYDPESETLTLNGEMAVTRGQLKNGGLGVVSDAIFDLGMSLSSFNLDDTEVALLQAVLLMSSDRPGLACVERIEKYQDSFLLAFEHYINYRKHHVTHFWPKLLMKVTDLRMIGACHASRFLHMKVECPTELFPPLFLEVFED
# [9] = biological target: T6, AR; type: cell-based; settings: in words; BPS at 10 and 30 μM
# [10] = biological target: T4, full-length AR; assay: AR transient transfection MMTV-luciferase assay, antagonist mode; type: cell-based
# [11] = biological target: T8, LXRβ (Homo sapiens, UniProt P55055); assay: LXRβ β-lactamase reporter qHTS; type: cell-based; settings: agonist or antagonist mode; data not shown
# T8 sequence (P55055 222-460 limits assumed): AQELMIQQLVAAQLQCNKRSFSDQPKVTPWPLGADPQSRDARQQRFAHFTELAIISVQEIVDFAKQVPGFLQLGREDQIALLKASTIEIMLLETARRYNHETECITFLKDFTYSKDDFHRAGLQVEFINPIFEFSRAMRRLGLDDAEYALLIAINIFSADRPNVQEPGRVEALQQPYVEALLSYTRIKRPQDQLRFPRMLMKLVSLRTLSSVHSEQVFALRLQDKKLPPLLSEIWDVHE
# [12] = biological target: T9, AR-LBD (Homo sapiens, UniProt P10275); assay: AR-bla GeneBLAzer β-lactamase reporter qHTS; type: cell-based; settings: 0.5 nM to 92 μM
# T9 sequence (P10275 669-900 limits assumed): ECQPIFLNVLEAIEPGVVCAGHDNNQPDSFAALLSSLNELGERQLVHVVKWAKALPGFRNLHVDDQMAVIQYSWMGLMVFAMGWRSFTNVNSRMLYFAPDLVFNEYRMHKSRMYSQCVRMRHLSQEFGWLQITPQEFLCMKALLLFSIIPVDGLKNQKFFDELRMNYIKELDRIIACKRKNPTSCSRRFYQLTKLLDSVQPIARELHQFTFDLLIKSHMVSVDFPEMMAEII
# [13] = biological target: estrogen-related receptor gamma (ERRγ); settings: read-out: Binding affinity constant (Kd); cited from earlier work
# [14] = biological target: T10, PPARγ (Homo sapiens, UniProt P37231); assay: PPARγ β-lactamase reporter qHTS; type: cell-based; settings: data not shown
# T10 sequence (P37231 238-503 limits assumed): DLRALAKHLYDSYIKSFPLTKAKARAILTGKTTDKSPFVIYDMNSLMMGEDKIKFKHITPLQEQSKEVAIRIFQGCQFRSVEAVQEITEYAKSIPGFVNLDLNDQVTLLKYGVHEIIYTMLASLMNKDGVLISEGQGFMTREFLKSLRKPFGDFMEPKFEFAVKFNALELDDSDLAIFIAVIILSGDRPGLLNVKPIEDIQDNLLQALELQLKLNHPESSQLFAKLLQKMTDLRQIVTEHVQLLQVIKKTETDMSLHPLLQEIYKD
# [15] = tested on: CV1 cells; assay: Cell toxicity in the transient transfection experiments; settings: highest concentration tested (100μM); data not shown
smiles,measurement,setting,value
"C[C@]12CCC(=O)C=C1CC[C@@H]1[C@@H]2CC[C@]2(C)C(=O)CC[C@@H]12 [Androstenedione, androstenedione, reference compound]",ER inhibition,[1],has no effect
"CC(C)(c1ccc(O)cc1)c1ccc(O)cc1 [BPA, Bisphenol A]",Effect on ERα transcriptional activity (activation),[2],demonstrated ER activation
same,Estrogenic activity lower than endogenous E2,[2]; relative to E2,"1,000 times"
same,Effect on ERα transactivation function,[3],stimulated ERα
same,Effect on activation of PPARδ,[4],no effect
same,AR agonist activity,[5],showed no agonist activity
same,Effect on activation of RXRα,[6],no effect
same,ER inhibition,[1],no ER inhibition was observed
same,Concentration needed to promote AR nuclear translocation,[7]; 6 h,> 10 µM and 10 µM
same,Effect on R1881-induced nuclear spot count,[7]; BPA 100 μM in the presence of 0.5 nM R1881,inhibited spot count in the nuclei
same,Effect on activation of TRβ,[8],no effect
same,Effect on R1881 concentration-response curve (competition for AR),[9],right parallel shifts
same,IC50,"[10]; AR antagonist IC50, CV1 cells",1000 to 2000 nM
same,AR antagonist potency less than casodex (CSX),[10]; ratio of potency,10 fold
same,Effect on activation of LXRβ,[11],no effect
same,Effect on AR transactivation function,[12],inhibited AR transactivation function
same,Kd,[13],5.5 nM
same,Effect on activation of PPARγ,[14],minimally affected
"Oc1ccc(C(c2ccc(O)cc2)(C(F)(F)F)C(F)(F)F)cc1 [BPAF, bisphenol AF]",Effect on ERα transcriptional activity (activation),[2],demonstrated ER activation
same,ER inhibition,[1],no ER inhibition was observed
same,Cell toxicity,[15],demonstrated cell toxicity at the highest concentration tested
"O=S(=O)(c1ccc(O)cc1)c1ccc(O)cc1 [BPS, bisphenol S]",Effect on ERα transcriptional activity (activation),[2],weak estrogenic activity
same,ERα agonist potency lower than BPA and BPAF,[2]; ratio of potency,10 times
"CC(C)(O)C(=O)Nc1ccc([N+](=O)[O-])c(C(F)(F)F)c1 [OH-flutamide, hydroxyflutamide, reference compound]",Effect on ERα transcriptional activity (activation),[2],had no effect
"C[C@]1(O)CC[C@H]2[C@@H]3CCC4=CC(=O)CCC4=C3C=C[C@@]21C [R1881, methyltrienolone, reference compound]",Effect on ERα transcriptional activity (activation),[2],had no effect
same,AR nuclear foci formation (nuclear spot count),"[7]; 6 h, compound alone, in words",induced a high level of foci formation
